Experimental data: patent US11034728B2, “Peptides for binding epidermal growth factor” (3M INNOVATIVE PROPERTIES COMPANY, priority 2016, dated 2021)
Ends that are not written are not given here.

What was measured:
EGF [1] = target: T1, EGF (Homo sapiens, UniProt P01133); assay: biochemical; conditions: binding affinity (KD) for EGF, linker modified peptide immobilized on CM5 chip, Biacore 3000, 25° C., HBS-EP, EGF 62.5-1000 nM, 1-to-1 Langmuir fit
Description: “Test Method A” refers to the following general surface plasmon resonance (SPR) binding assay. Target protein (e.g., EGF and TNF-□) is immobilized at 25° C. and diluted peptides are injected for 3 min at a flow rate of 10 μl/min at 25° C. Binding assay is performed according to detailed Test method A in Examples.
The following Test Method A was used for determining the binding affinity (KD) of SEQ ID NO: 1 for EGF and TNF-□□ Binding experiments were performed using Biacore 3000 optical biosensors equipped with research-grade CM5 sensor chips (GE Healthcare Bio-Sciences Corporation). The reagents used for the amine-coupling steps [(1-ethyl-3-(3-dimethylaminopropyl)-carbodiimide (EDC); N-hydroxysuccinimide (NHS); and ethanolamine hydrochloride-NaOH (1 M, pH 8.5)] were obtained from GE Healthcare Bio-Sciences Corporation. In order to efficiently immobilize the peptide on the sensor chips, a modified version of SEQ ID NO:1 was prepared by SPPS in which a “CK” amino acid linker sequence was added to the N-terminal end of the SEQ ID NO: 1 peptide (i.e. linker modified version of SEQ ID NO: 1 for immobilization being [sequence]). A standard coupling protocol was employed to immobilize the linker modified version of SEQ ID NO: 1 via the lysine residues. The immobilization was performed at 25° C. using HBS-EP as the running buffer. […]

EGF [2] = target: T1, EGF; assay: Dot blotting analysis, EGF spotted on membrane, probed with biotinylated peptide and Streptavidin-HRP; type: binding; design: Recombinant Human Epidermal Growth Factor (EGF); purchased Abcam plc, Cambridge, Mass; conditions: EGF 10 nM spotted; biotinylated peptide 10 ng/mL; Streptavidin-HRP, TMB
Description: EGF (1 microliter of a 10 nM solution in PBS was spotted a nitrocellulose membrane (obtained from Thermo Fisher Scientific) and the membrane was dried in air for about 30 minutes. The membrane was then incubated in 15 mL of blocking buffer (3 wt. % BSA in PBS) for one hour at room temperature. The membrane was washed three times (15 minutes for each wash) with 15 mL portions of fresh PBST. The washed membrane was incubated with Biotinylated SEQ ID NO: 1 [10 mL of a 10 ng/mL solution in blocking buffer (3 wt. % BSA in PBS)] with gentle agitation for one hour. The membrane was again washed three times (15 minutes for each wash) with 15 mL portions of fresh PBST. The washed membrane was incubated with Streptavidin-HRP [1:5000 dilution in 10 mL of the blocking buffer (3 wt. % BSA in PBS)] for 30 minutes with gentle agitation. Following the incubation, the membrane was washed three times (15 minutes for each wash) with 15 mL portions of fresh PBST. The washed membrane was incubated with 10 mL of the development solution for horseradish peroxidase (TMB-Blotting Substrate Solution, Pierce-Fisher Scientific) with gentle agitation. The color development was stopped by adding water.

T1 sequence (P01133 971-1023 limits assumed): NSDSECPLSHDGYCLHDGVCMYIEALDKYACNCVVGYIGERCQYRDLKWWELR

Substance	Kd (EGF [1]) [nM]	Dot blot colour development at EGF application site (affinity for EGF) (EGF [2])
Ac-YVSPGMKNVNWWSHWWHATD-NH2 [SEQ ID NO: 1]	700	
Biotinylated SEQ ID NO: 1: Biotinylated version of peptide SEQ ID NO: 1, obtained from GenScript (YVSPGMKNVNWWSHWWHATD; also: biotinylated, place not given here)		A dark spot developed
